{"source": "patent US8895717B2", "about": "“Delivery of siRNA by neutral lipid compositions” (The Board of Regents of the University of Texas System, priority 2005, dated 2014)", "key": {"[1]": {"tested_on": "A2780 and RMG-II cells", "assay": "Intracellular cAMP in βAR negative cell lines", "type": "cell-based, human"}, "[2]": {"tested_on": "VEGF mRNA", "assay": "VEGF mRNA expression, real-time RT-PCR", "type": "cell-based, human", "method": "Total RNA was extracted (Trizol reagent; Invitrogen Co, Carlsbad, Calif.) and reverse transcribed using an oligo(dT) primer and M-MLV reverse transcriptase (Life Technologies, Inc., Rockville, Md.) in a final reaction volume of 20 μl (60 min at 42° C.). PCR amplifications are performed using the ABI Prism 7700 Sequence Detection System with TaqMan One-Step RT-PCR Master Mix Reagent kit (PE Applied Biosystems, Foster City, Calif.). Quantitative values are obtained from the Ct value, at which the increase in fluorescent signal associated with exponential growth of PCR products starts to be detected by the laser detector of the Sequence Detection System, using the analysis software according to the manufacturer's instructions (each sample is normalized on the basis of its I8S content). The VEGF primers were obtained from Applied Biosystems (Item number HS00173626-ml). βAR expression was examined with semi-quantitative RT-PCR using the following primers: βAR (forward, 5′-[…]-3′ (SEQ ID NO:13), reverse, 5′-[…]-3′) (SEQ ID NO:14); β2AR (forward, 5′-[…]-3′ (SEQ ID NO:15), reverse, 5′-[…]-3′) (SEQ ID NO:16)."}, "[3]": {"tested_on": "HeyA8 cells", "assay": "Daily β-agonist treatment of mice bearing HeyA8 ovarian cancer cells", "type": "in vivo, nude mice", "conditions": "10 mg/kg daily", "description": "Mice habituated to vivarium conditions for 1 week before the initiation of stress procedures. A restraint-stress procedure was used based on previous studies (Sheridan et al., 1991), substituting a novel Mouse Restraint System (FIG. 15A) for conical centrifuge tubes. In this system, up to 10 mice are placed in individual slots, and each slot can be adjusted to restrain the animal for a desired length of time. In the present study, restraint stress began between 8 a.m. and 10 a.m., and lasted for 2-6 hours for up to 21 days. The ovarian cancer cell lines were harvested from subconfluent cultures by a brief exposure to 0.25% trypsin and 0.02% EDTA, resuspended in Hank's balanced salt solution (HBSS), and tested for >95% viability by trypan blue dye exclusion. The HeyA8 cells were injected i.p. into mice at a concentration of 2.5×10^5 cells while the other cell lines were injected at 1.0×10^6 cells per 0.2 ml HBSS, ten days after starting stress in all groups. Animals were necropsied 21 days after tumor injection, and tumors in the peritoneal cavity were excised, weighed, and documented for location. Immunohistochemistry and H&E staining procedures were carried out on formalin-fixed paraffin-embedded tumors.\nStarting 4 days after tumor cell injection, mice bearing HeyA8 ovarian cancer cells (n=10 per group) were treated daily with either 1) PBS; 2) isoproterenol (non-specific β-agonist) 10 mg/kg; 3) terbutaline (β2-agonist) 5 mg/kg; 4) xamoterol (β1-agonist) 1 mg/kg; or 5) isoproterenol plus 2 mg/kg of the non-specific β-antagonist propranolol."}, "[4]": {"tested_on": "HeyA8 tumor samples", "assay": "Mean vessel density (CD31) in HeyA8 tumor samples", "type": "in vivo, nude mice", "conditions": "daily agonist treatment", "method": "Paraffin sections were stained for CD31 (1:800 dilution, Pharmingen, San Jose, Calif.), MMP-2 (1:500 dilution, Chemicon, Temecula, Calif.), MMP-9 (1:200 dilution, Calbiochem, San Diego, Calif.), VEGF (1:500 dilution, Santa Cruz Biotechnology, Santa Cruz, Calif.) and bFGF (1:1,000 dilution, Sigma, St. Louis, Mo.) at 4° C. Samples were stained with a biotinylated goat anti-rabbit antibody for 30 min (prediluted), followed by strepavidin horseradish peroxidase for 30 min (1:300 dilution), and visualized in 3,3′-diaminobenzidine (DAB) for 5-10 min.\nTo quantify MVD, 10 random 0.159 mm^2 fields at 100× magnification were examined for each tumor, and the microvessels within those fields were counted. A single microvessel was defined as a discrete cluster of cells stained CD31(+), and the presence of a lumen was required for scoring as a microvessel."}, "[5]": {"tested_on": "HeyA8 cells", "assay": "TUNEL apoptosis assay, HeyA8", "type": "cell-based, human", "method": "(§1) Terminal deoxynucleotidyl transferase-mediated nick end labeling-positive cells were detected using Dead End Fluorometric terminal deoxynucleotidyl transferase-mediated nick end labeling system (APO-DIRECT, BD Biosciences/PharMingen, San Diego, Calif.) according to the manufacturer's instructions. […] Cells were fixed with 4% paraformaldehyde solution for 25 minutes on ice. Intracellular DNA fragments were then labeled by exposing cells to fluorescein-12-dUTP, treated with propidium iodide and RNaseA solution, and analyzed by flow cytometry (EPICS XL, Beckman Coulter, Miami, Fla.). The percentages of apoptotic cells were averaged over three consecutive experiments."}, "[6]": {"tested_on": "SKOV3 cells", "assay": "Cytotoxicity assay (MTT), SKOV3", "type": "cell-based, human", "conditions": "Homo sapiens, SK-OV-3; SKOV3, 96 hours", "method": "(§2) The medium was exchanged after 48 hours with increasing concentrations of docetaxel (obtained from Aventis Pharma, Bridgewater, N.J.) dissolved in ethanol (final concentration range, 0.1-10,000 nmol/L prepared in medium) or cisplatin (purchased from LKT Laboratories, Inc., St. Paul, Minn.) dissolved in water. After a 96-hour incubation, 50 μL of 0.15% 3-(4,5-dimethylthiazol-2-yl)-2,5-diphenyltetrazolium bromide was added to each well and incubated for 2 hours. The supernatant was removed, and cells were dissolved in 100 μL DMSO. The absorbance at 570 nm was recorded using a FALCON microplate reader (Becton Dickinson Labware, Bedford, Mass.), and cell survival expressed as a percent increase or decrease above control conditions, after subtracting blank A570 readings. The IC50 concentration was determined by finding the A570 reading midpoint between maximal and minimal readings and finding the chemotherapy concentration that intersects the growth curve at that A570 reading."}, "[7]": {"tested_on": "HeyA8 cells", "assay": "Cytotoxicity assay (MTT), HeyA8", "type": "cell-based, human", "conditions": "Homo sapiens, HEY A8; HeyA8, 96 hours", "method": "as §2"}, "[8]": {"tested_on": "caspase-3", "assay": "Caspase-3 activity in ovarian cancer cells (DEVD-AFC)", "type": "cell-based, human", "conditions": "for increase in caspase-3 activity: 24 hours", "method": "Ovarian cancer cells (1×10^6) in culture (six-well plates) were treated with or without docetaxel at the cell line specific IC50 or IC90 concentration for 24 hours. After washing with PBS, cells were lysed in 50 μL of cell lysis buffer provided. Caspase-3, caspase-8, and caspase-9 activities were measured with the appropriate apoptosis detection kit (BD Biosciences/Clontech, Palo Alto, Calif.), using substrate DEVD-AFC for caspase-3, IETD-AFC for caspase-8, and LEHD-AMC for caspase-9."}, "[9]": {"tested_on": "SKOV3-TR cells", "assay": "Cytotoxicity assay (MTT), SKOV3-TR", "type": "cell-based, human", "method": "as §2"}, "[10]": {"tested_on": "SKOV3 cells", "assay": "TUNEL apoptosis assay, SKOV3", "type": "cell-based, human", "method": "as §1"}, "[11]": {"tested_on": "SKOV3-TR and HeyA8-MDR cells", "assay": "TUNEL apoptosis assay, taxane-resistant cells", "type": "cell-based, human", "method": "Terminal deoxynucleotidyl transferase-mediated nick end labeling-positive cells were detected using Dead End Fluorometric terminal deoxynucleotidyl transferase-mediated nick end labeling system (APO-DIRECT, BD Biosciences/PharMingen, San Diego, Calif.) according to the manufacturer's instructions. Briefly, ovarian cancer cells in culture were treated with varying concentrations of docetaxel and harvested after 12, 24, 48, or 96 hours. Cells were fixed with 4% paraformaldehyde solution for 25 minutes on ice. Intracellular DNA fragments were then labeled by exposing cells to fluorescein-12-dUTP, treated with propidium iodide and RNaseA solution, and analyzed by flow cytometry (EPICS XL, Beckman Coulter, Miami, Fla.). The percentages of apoptotic cells were averaged over three consecutive experiments."}, "[12]": {"tested_on": "HeyA8-MDR cells", "assay": "Cytotoxicity assay (MTT), HeyA8-MDR", "type": "cell-based, human", "method": "as §2"}, "[13]": {"tested_on": "FAK", "assay": "FAK cleavage in response to docetaxel, Western blot", "type": "cell-based, human", "method": "Cells were lysed in modified RIPA buffer (50 mM Tris, 150 mM NaCl, 1% triton, 0.5% deoxycholate plus 25 µg/ml leupeptin, 10 µg/ml aprotinin, 2 mM EDTA, and 1 mM sodium orthovanadate (Sigma Chemical Co, St. Louis, Mo.) as previously described (Sood et al., 2004; Sood et al., 2002). A sample was removed from culture dishes by cell scraping and centrifuged at 12,500 rpm for 30 min. The […] protein concentration of the supernatant was determined using a bicinchoninic acid protein assay reagent kit (Pierce, Rockford, Ill.), and whole cell lysates were analyzed by 7.5% SDS-PAGE. Samples were then transferred to nitrocellulose membrane by semi-dry transfer (BioRad Laboratories, Hercules, Calif.). Membranes were blocked with 5% nonfat milk, and incubated with 0.25 μg/mL anti-FAK antibody (Biosource, International Camarillo, Calif.) for 1 h at room temperature. Antibody was detected with 0.167 μg/mL HRP-conjugated anti-mouse secondary antibody (The Jackson Laboratory, Bar Harbor, Me.) and developed with an enhanced chemiluminescence detection kit (Pierce). Equal loading was confirmed by detection of β-actin (0.1 μg/ml, anti-β-actin antibody, Sigma Chemical). Densitometric analysis was performed using the Scion Imaging software (Scion Corporation, Frederick, Md.).\nIt has been reported that FAK may be cleaved by caspase-3 (Gervais et al., 1998; Sasaki et al., 2002; Carragher et al., 2001). Based on observations regarding modulation of caspase levels by docetaxel in ovarian cancer cells, FAK cleavage after treatment with docetaxel was examined and whether there are differences in extent of FAK cleavage between the taxane-sensitive and taxane-resistant cell lines. In SKOV3 cells, FAK was cleaved after 48 and 72 hours of exposure to docetaxel (FIG. 7A). The 71-kDa fragments increased after treatment with docetaxel, whereas the 125-kDa fragments decreased. […] To study the dependence of FAK cleavage on caspase-3, the effect of DEVDfmk (caspase-3 inhibitor) was examined."}}, "data": [{"molecule": "NC[C@H](O)c1ccc(O)c(O)c1", "note": "[norepinephrine]", "values": [{"measurement": "intracellular cAMP levels after stimulation", "setting": "[1]", "value": "neither of the βAR negative cell lines showed an increase in intracellular cAMP levels"}, {"measurement": "increase in VEGF mRNA expression", "setting": "[2]; SKOV3ip1, peak 1.5 hours following treatment", "value": 8.4, "unit": "fold"}, {"measurement": "VEGF expression", "setting": "[2]; βAR-negative A2780 cells", "value": "no increase in VEGF expression"}]}, {"molecule": "CC(C)NCC(O)c1ccc(O)c(O)c1", "note": "(centres unmarked) [isoproterenol]", "values": [{"measurement": "increase in average tumor weight compared to control", "setting": "[3]", "value": 266, "unit": "%"}, {"measurement": "increase in mean number of tumor nodules compared to control", "setting": "[3]", "value": 341, "unit": "%"}, {"measurement": "MVD counts", "setting": "[4]", "value": "significantly higher MVD counts compared to controls"}, {"measurement": "intracellular cAMP levels after stimulation", "setting": "[1]", "value": "neither of the βAR negative cell lines showed an increase in intracellular cAMP levels"}, {"measurement": "effect on VEGF mRNA", "setting": "[2]; SKOV3ip1, forskolin 1 μM, db-cAMP 1 mM", "value": "mimicked"}]}, {"molecule": "CC(=O)O[C@@]12CO[C@@H]1C[C@H](O)[C@@]1(C)C(=O)[C@H](O)C3=C(C)[C@@H](OC(=O)[C@H](O)[C@@H](NC(=O)OC(C)(C)C)c4ccccc4)C[C@@](O)([C@@H](OC(=O)c4ccccc4)[C@H]21)C3(C)C", "note": "[docetaxel]", "values": [{"measurement": "apoptosis", "setting": "[5]; HeyA8, IC20 level of docetaxel, FAK siRNA 48 hours before", "value": "~42", "unit": "%"}, {"measurement": "proportion of apoptotic cells", "setting": "[5]; HeyA8, docetaxel 72 hours without or with DEVD-fmk", "value": 56, "unit": "%"}, {"measurement": "proportion of apoptotic cells", "setting": "[5]; HeyA8, docetaxel 96 hours", "value": 66, "unit": "%"}, {"measurement": "IC50", "setting": "[6]", "value": 6.2, "unit": "nM"}, {"measurement": "IC50", "setting": "[7]", "value": 1, "unit": "nM"}, {"measurement": "increase in caspase-3 activity", "setting": "[8]; HeyA8, IC50 level of docetaxel", "value": 1.8, "unit": "fold"}, {"measurement": "increase in caspase-3 activity", "setting": "[8]; HeyA8, IC90 level of docetaxel", "value": 2.5, "unit": "fold"}, {"measurement": "increase in caspase-3 activity", "setting": "[8]; SKOV3, IC50 level of docetaxel", "value": 2.8, "unit": "fold"}, {"measurement": "increase in caspase-3 activity", "setting": "[8]; SKOV3, IC90 level of docetaxel", "value": 5.4, "unit": "fold"}, {"measurement": "induction of caspase activity", "setting": "[8]; resistant SKOV3-TR and HeyA8-MDR, IC50 and IC90 levels for sensitive lines, caspase-3, -8, -9", "value": "not able to induce caspase activity"}, {"measurement": "IC50", "setting": "[9]; Homo sapiens, SKOV3TR, SKOV3-TR, 96 hours", "value": 225, "unit": "nM"}, {"measurement": "fold more resistant to docetaxel", "setting": "[9]; SKOV3-TR versus SKOV3", "value": 36, "unit": "fold"}, {"measurement": "apoptosis", "setting": "[10]; SKOV3, IC20 level of docetaxel, FAK siRNA 48 hours before", "value": "about 41%"}, {"measurement": "proportion of apoptotic cells", "setting": "[10]; SKOV3, docetaxel 72 hours without or with DEVD-fmk", "value": 72, "unit": "%"}, {"measurement": "proportion of apoptotic cells", "setting": "[10]; SKOV3, docetaxel 96 hours", "value": 84, "unit": "%"}, {"measurement": "apoptosis", "setting": "[11]; FAK siRNA with or without docetaxel", "value": "neither agent alone induced much apoptosis"}, {"measurement": "level of apoptosis", "setting": "[11]; docetaxel with or without DEVD-fmk", "value": "remained low"}, {"measurement": "fold more resistant to docetaxel", "setting": "[12]; HeyA8-MDR versus HeyA8", "value": 300, "unit": "fold"}, {"measurement": "IC50", "setting": "[12]; Homo sapiens, HeyA8-MDR, 96 hours", "value": 450, "unit": "nM"}, {"measurement": "FAK cleavage", "setting": "[13]; SKOV3, 48 and 72 hours", "value": "cleaved"}, {"measurement": "FAK cleavage", "setting": "[13]; SKOV3-TR and HeyA8-MDR", "value": "did not show any increase in FAK cleavage products"}]}]}
